Assay results: patent publication US7199113B2, “Pharmaceutically active compounds and methods of use thereof” (priority 1998, dated 2007)

Columns and labels:
Format in all cases: biochemical
[1] = system: human plasma (TF-initiated clotting); assay: Prothrombin time (PT) assay; details: lipidated recombinant tissue factor 1–3 nM, statement on FIG. 4
Procedure: Clot times are generally measured in seconds. Preferred PT assays are typically performed by adding a suitable amount (e.g. about 1 to 3 nM) of lipidated tissue factor to an assay solution that includes conventionally citrated plasma. The PT assay measures TF-mediated blood plasma clot time and is preferably performed by conducting the following steps: • 1) providing about 0.1 ml of citrated human plasma in a suitable assay solution, and combining same with between from about 0.5 μl to 10 μl of at least one compound to be tested (optionally dissolved in vehicle such as water or dimethylsulfoxide (DMSO)) and incubating same at room temperature for about 3 to 10 minutes, • 2) admixing into the solution from between about 0.2 ml (ca. 1–3 nM recombinant human tissue factor) and about 5–10 mM of calcium to initiate plasma clotting; and • 3) measuring the plasma clot time to determine the prothrombin clot time (PT).
The PT assay was performed at 37° C. with an Electra 800 (Medical Automation, Inc.). The PT reaction was initiated by adding 0.2 ml of lipidated recombinant human tissue factor into 0.105 ml of human plasma (Ci-Trol Control Level I, from VWR, Cat. No. 68100-336). […] Following mixing the compound (or DMSO) with plasma (Ci-Trol), 0.2 ml of lipidated reocombinant tissue factor (1–3 nM) is added to the plasma and clotting times were measured within 10 min.

FXa = target: T1, FXa (Homo sapiens, UniProt P00742); assay: FXa activity assay; details: statement on Table 1 (FIG. 2(a))
T1 construct: FX is converted to FXa by TF/VIIa complex in the absence of any compound; purchased Enzyme Research Laboratories Inc
T1 sequence (P00742 235-488 limits assumed): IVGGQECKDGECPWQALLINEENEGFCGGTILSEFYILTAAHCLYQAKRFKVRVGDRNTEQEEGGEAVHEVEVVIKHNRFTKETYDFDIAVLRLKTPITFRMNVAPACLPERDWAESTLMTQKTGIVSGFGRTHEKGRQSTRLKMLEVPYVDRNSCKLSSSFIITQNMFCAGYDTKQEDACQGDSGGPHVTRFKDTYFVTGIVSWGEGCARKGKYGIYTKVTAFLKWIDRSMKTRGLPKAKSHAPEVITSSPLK
T1 sequence (P00742 41-179 limits assumed): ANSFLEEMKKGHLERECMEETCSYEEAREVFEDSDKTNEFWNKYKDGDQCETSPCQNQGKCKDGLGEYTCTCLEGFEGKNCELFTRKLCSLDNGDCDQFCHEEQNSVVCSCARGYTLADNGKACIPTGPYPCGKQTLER
Procedure: FX is converted to FXa by TF/VIIa complex in the absence of any compound. To do that, 54 μl of TF/VIIa (50 nM) was added to 27 ml of buffer in a 50-ml tube. Then 6 ml of FX (180 nM) was added and incubated at 37° C. for 15 minutes. Six ml of EDTA was added to stop FX activation. Five μl of compound or DMSO was placed in each well of a 96-well plate in duplicate, then 65 μl of FXa generated above was added to each well and mixed. After incubation for 15 minutes at 37° C., 10 μl of FXa substrate Spectrozyme FXa was added and incubated for 20 minutes at 37° C. Absorbance at 405 nm was then measured following addition of 20 μl of 50% acetic acid. The percent inhibition of FXa activity was calculated from OD405 nm values in the absence and presence of a compound.

[2] = target: Russell's viper venom (RVV) (Daboia siamensis, UniProt Q7LZ61)
Sequence of Russell's viper venom (RVV) (Q7LZ61 whole entry, looked up): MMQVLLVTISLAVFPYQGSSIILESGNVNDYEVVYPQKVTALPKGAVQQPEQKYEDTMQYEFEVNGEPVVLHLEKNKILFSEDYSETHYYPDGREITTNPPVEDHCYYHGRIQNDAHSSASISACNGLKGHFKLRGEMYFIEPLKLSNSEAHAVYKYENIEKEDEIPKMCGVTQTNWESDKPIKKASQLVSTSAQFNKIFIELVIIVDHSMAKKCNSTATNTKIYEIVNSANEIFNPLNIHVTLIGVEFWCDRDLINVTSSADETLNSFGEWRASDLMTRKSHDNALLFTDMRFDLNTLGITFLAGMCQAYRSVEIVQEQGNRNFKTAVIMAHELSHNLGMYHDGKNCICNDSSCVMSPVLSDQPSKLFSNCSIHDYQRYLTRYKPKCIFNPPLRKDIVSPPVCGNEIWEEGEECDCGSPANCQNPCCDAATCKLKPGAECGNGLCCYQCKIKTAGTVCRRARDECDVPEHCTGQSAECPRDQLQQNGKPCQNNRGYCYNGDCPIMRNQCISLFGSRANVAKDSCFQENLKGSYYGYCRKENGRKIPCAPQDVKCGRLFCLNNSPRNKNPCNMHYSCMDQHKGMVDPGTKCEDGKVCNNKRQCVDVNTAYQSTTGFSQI

thrombin = target: T2, thrombin (Homo sapiens, UniProt P00734); assay: Thrombin activity assay; details: statement on Table 1 (FIG. 2(a))
T2 construct: followed by addition of 10 μl of thrombin (20 nM); purchased Enzyme Research Laboratories Inc
Procedure: For thrombin activity assay, 55 μl of buffer was mixed with 5 μl of DMSO or compound, followed by addition of 10 μl of thrombin (20 nM). Mix and incubate at 37° C. for 10 minutes. Then 10 μl of substrate S-2238 was added and allowed to incubate at 37° C. for 15–20 minutes. Absorbance at 405 nm was then measured and the percent inhibition of thrombin activity was calculated from OD405 nm values in the absence and presence of a compound.

trypsin = assay: Trypsin activity assay; details: statement on Table 1 (FIG. 2(a))
Procedure: For trypsin activity assay, 4 μl of trypsin (100 nM) was first mixed with 61 μl of buffer, 5 μl of DMSO or 5 μl of compound (in DMSO), followed by 15 minute incubation at 37° C. Then 10 μl of substrate S-2222 (4.8 mM) was added to start the reaction. After a 15 minute incubation at 37° C., 20 μl of 50% acetic acid was added to quench the reaction. Absorbance at 405 nm was then measured and the percent inhibition of trypsin activity was calculated from OD405 nm values in the absence and presence of a compound.

TF/VIIa complex = target: T3, TF/VIIa complex (Homo sapiens, UniProt P13726); assay: TF/VIIa-dependent FIX activation assay; details: for blocking activity in standard assay for TF/VIIa-dependent factor IX activation: statement on FIG. 3; for inhibition of TF/VIIa-dependent FIX activation: statement on Table 4 (FIG. 2(d))
T3 construct: Truncated recombinant human tissue factor (e.g. composed of 243 amino acids) is expressed in E. coli; host or cells: E. coli (TF)
T3 sequence (P13726 33-275 limits assumed): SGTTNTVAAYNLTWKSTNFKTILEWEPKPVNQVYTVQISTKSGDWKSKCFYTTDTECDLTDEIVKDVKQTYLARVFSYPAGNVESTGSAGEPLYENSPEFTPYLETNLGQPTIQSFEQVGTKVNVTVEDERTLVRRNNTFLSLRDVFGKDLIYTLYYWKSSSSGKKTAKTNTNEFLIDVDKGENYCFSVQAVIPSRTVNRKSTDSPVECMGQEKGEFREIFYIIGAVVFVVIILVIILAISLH
T3 sequence (P08709 61-212 partner limits assumed): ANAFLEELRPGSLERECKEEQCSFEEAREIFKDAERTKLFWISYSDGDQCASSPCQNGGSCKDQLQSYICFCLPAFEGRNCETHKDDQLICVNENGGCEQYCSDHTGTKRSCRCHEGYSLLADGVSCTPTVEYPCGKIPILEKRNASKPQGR
T3 sequence (P08709 213-466 partner limits assumed): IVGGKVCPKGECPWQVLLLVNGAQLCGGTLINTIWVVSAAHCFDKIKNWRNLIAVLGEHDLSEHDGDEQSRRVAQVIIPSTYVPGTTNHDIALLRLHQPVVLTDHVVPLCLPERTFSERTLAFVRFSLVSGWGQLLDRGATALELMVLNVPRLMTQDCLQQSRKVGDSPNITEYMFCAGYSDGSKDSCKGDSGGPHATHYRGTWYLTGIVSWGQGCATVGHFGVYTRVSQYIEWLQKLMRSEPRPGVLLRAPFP
Procedure: In a more particular embodiment, the standard assay preferably includes the following steps: • 1) admixing in a suitable assay solution about 0.7 nM TF/VIIa complex with 300 nM factor IX and 1000 nM factor X, and from between about 0.5 μl to about 10 μl of at least one compound to be tested (optionally dissolved in an appropriate vehicle such as water or dimethylsulfoxide (DMSO)) and incubating the solution at 37° C. from between about a few minutes up to about an hour under conditions suitable for forming FIXa and FXa; • 2) contacting the solution with a suitable chelating agent such as EDTA to stop FIX activation; • 3) contacting the solution with a chromogenic substrate specific for the FXa (e.g., Spectrozyme FXa) and incubating same at 37° C.; and • 4) detecting chromophore in the solution as being indicative of the factor IX activation.
TF/VIIa is not only able to activate FX, but is also able to convert FIX to FIXa. To examine whether the two antagonists 1 and 2 were able to block FIX activation catalyzed by TF/VIIa. FIX activation experiment was conducted. To each well of a 96-well plate, 5 μl of diluted DMSO or compound was added, followed by 45 μl of TF/VIIa (0.67 nM). After mixing and incubating for 15 minutes at 37° C., 10 μl of FIX (300 nM) was added and incubated for 10 minutes at 37° C. 10 μl of EDTA ([…] in 144 mM HEPES, […], 0.576% BSA, pH adjusted to 7.5) was added, followed by addition of 10 μl of FX (1000 nM), 10 μl of polylysine, and 10 μl of Spectrozyme FXa (6 mM). After 3 hour incubation at 37° C., absorbance at 405 nm was measured following addition of 20 μl of 50% acetic acid. The percent inhibition of TF/VIIa-dependent FIX activation was calculated from OD405 nm values in the absence and presence of a compound.

| Structure (SMILES) | effect on TF-initiated PT times (clotting time) [1] | inhibition of FXa activity (FXa) | inhibition of RVV-dependent FX activation [2] | inhibition of thrombin activity (thrombin) | inhibition of trypsin activity (trypsin) | blocking activity in standard assay for TF/VIIa-dependent factor IX activation (TF/VIIa complex) | inhibition of TF/VIIa-dependent FIX activation (TF/VIIa complex) |
| --- | --- | --- | --- | --- | --- | --- | --- |
| O=P(O)(O)C(CNc1cccc(O)c1)P(=O)(O)O [Compound 1, 1-(bisphosponate)-2-amino(3-hydroxyphenyl)ethyl] | prolonged TF-initiated PT times significantly | do not inhibit FXa activity | do not inhibit RVV catalytic activity | do not inhibit thrombin activity | do not inhibit trypsin activity | good blocking activity | inhibit TF/VIIa-dependent FIX activation |
| O=P(O)(O)C(CNc1ccc(O)cc1)P(=O)(O)O [Compound 2] | prolonged TF-initiated PT times significantly | do not inhibit FXa activity | do not inhibit RVV catalytic activity | do not inhibit thrombin activity | do not inhibit trypsin activity | good blocking activity | inhibit TF/VIIa-dependent FIX activation |
